The record followed here is publication PMC9021956, “Screening and Identification of HBV Epitopes Restricted by Multiple Prevalent HLA-A Allotypes” (Frontiers in Immunology, 2022).

The inhibition is the change of the read-out against control, counted positive when it falls.

One assay has as its target T1, HLA-A1102 (Homo sapiens, UniProt P04439, A114D/D185E/E176A/E43K/F33Y/L180Q/S129P/T187R).
T1 construct: expressed in transfected cells; host or cells: HMy2.CIR
Briefly: Peptide competitive binding assay, transfected HMy2.CIR cells, reference ATFQFK(FITC)VER. The note with it: for inhibition at 5 µM / inhibition at 15 µM: HLA-A1102 HMy2.CIR cells, 24 hours, flow cytometry; for inhibition at 5 µM: competitor peptide 5μM, read-out: 5μM Inhibition (%); for inhibition at 15 µM: competitor peptide 15μM, read-out: 15μM Inhibition (%). Put shortly: (§1)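 Unlabeled peptide IC50 reflects competition against an allele-specific FITC-labeled reference peptide on HLA-A-transfected HMy2.CIR cells. Cells were stripped at pH3.3 and given β2-m (1 μg/mL); flow cytometry measured FITC+ fraction, scaled between cells-alone and reference-peptide controls.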
In general terms: In flow cytometry, cells or beads pass a laser one at a time.

A further assay addresses T2, HLA-A0301 (Homo sapiens, UniProt P04439).
T2 construct: expressed in transfected cells; host or cells: HMy2.CIR
The assay is described as above. The settings on record: for inhibition at 5 µM / inhibition at 15 µM: HLA-A0301 HMy2.CIR cells, 24 hours, flow cytometry; for inhibition at 5 µM: competitor peptide 5μM, read-out: 5μM Inhibition (%); for inhibition at 15 µM: competitor peptide 15μM, read-out: 15μM Inhibition (%). Put shortly: as §1

Another assay deals with T3, HLA-A1101 (Homo sapiens, UniProt P04439, A114D/D185E/E176A/F33Y/L180Q/S129P/T187R).
T3 construct: expressed in transfected cells; host or cells: HMy2.CIR
Briefly: cell-based. It is filed as binding. The settings on record: for inhibition at 5 µM / inhibition at 15 µM: HLA-A1101 HMy2.CIR cells, 24 hours, flow cytometry; for inhibition at 5 µM: competitor peptide 5μM, read-out: 5μM Inhibition (%); for inhibition at 15 µM: competitor peptide 15μM, read-out: 15μM Inhibition (%). Put shortly: as §1

Another assay concerns the target T4, HLA-A0201 (Homo sapiens, UniProt P04439, D140Y/D185E/D98H/E176V/E277Q/G131W/G231S/I119V/I121R/I166T/I218V/L300P/L318F/N151K/N90K/P208A/P217A/Q86G/Q94H/R138H/R169H/T345S).
T4 construct: expressed in transfected cells; host or cells: HMy2.CIR
In words: cell-based. It is filed as binding. Put shortly:
as §1

The test system of assay [1] is twelve prevalent HLA-A allotypes. In words: Peptide competitive binding assay, whole panel. Set-up: species or system human. The settings on record: high = IC50<5μM. The method, then: A set of fluoresce-labeled reference peptides (positive-control peptide) were synthesized with a purity of >99% by Sangon Biotech and stored at 4°C, such as FLPSDK(FITC)FPSV for A0201, A0203 and A0206 ([30]), YVNVNK(FITC)GLK for A1101 and A3303 ([31]), EYLVSK(FITC)GVW for A2402 ([32]), ATFQFK(FITC)VER for A3101, A1102 and A0301 ([33]), KLPDDFK(FITC)GCV for A0207 ([34]), YLEPAK(FITC)AKY for A0101 ([30]), and ASRELK(FITC)VSY for A3001 (identified in house). Then the competitive peptide binding assay was performed as described with minor modifications ([30], [35]). Briefly, the HMy2.CIR cell lines expressing the indicated HLA-A molecule were washed with acid buffer (0.131M citric acid and 0.061M sodium phosphate Na2HPO4, PH3.3, 0.22 μm filtered) for 1 min, and immediately neutralized by IMDM medium containing 0.5% BSA. After washing, the cells were seeded into 96-well U culture plate (1×10^5 cells/100 μL/well) with β2-m (1 μg/mL). […] In parallel, no peptide control well (cells alone) and positive control well (cells with FITC-labeled reference peptide) were also performed.
The plate was centrifuged at 600 rpm for 5 min at room temperature (RT). Cells were washed twice with 100 μL cold 0.5% BSA-PBS. Finally, cells were resuspended with 150 μL PBS and analyzed with flow cytometry. Sample % is the percentage of FITC^+ cells in the experiment well, while the background % is the percentage of FITC^+ cells in the no peptide control well, and the max % is the percentage of FITC^+ cells in the positive control well. Competitive binding (%) = [1-(sample % - background %)/(max % – background %)] × 100%. […] Binding affinity of unlabeled peptide with the indicated HLA-A molecule is assessed by IC50.
Subsequently, the unlabeled epitope peptides of HBV competed with fluorescently labeled reference peptides in the binding with HLA-A molecules onto transfected cell lines for 24 hours. Here, twelve prevalent HLA-A allotypes were tested with totally 62 HBV epitope peptides validated in house.

The target of another assay is T5, HLA-A0206 (Homo sapiens, UniProt P04439, D140Y/D185E/D98H/E176V/E277Q/F33Y/G131W/G231S/I119V/I121R/I166T/I218V/L300P/L318F/N151K/N90K/P208A/P217A/Q86G/Q94H/R138H/R169H/T345S).
T5 construct: expressed in transfected cells; host or cells: HMy2.CIR
Briefly: cell-based. It is filed as binding. The settings on record: HLA-A0206 HMy2.CIR cells, 24 hours, flow cytometry. The gist of the method: as §1

Residues, ends and D or L forms follow the SMILES beside them.

With `CC(C)C[C@H](NC(=O)[C@H](CC(N)=O)NC(=O)CNC(=O)[C@H](Cc1c[nH]cn1)NC(=O)[C@H](C)NC(=O)[C@H](CC(N)=O)NC(=O)[C@@H](NC(=O)[C@@H](N)[C@@H](C)O)C(C)C)C(=O)N1CCC[C@H]1C(=O)N[C@@H](CCCCN)C(=O)O` [Epitope P47] (H-TVNAHGNLPK-OH; N-terminus and C-terminus assumed), the inhibition at 5 µM on HLA-A1102 came out at 24.7%; on HLA-A0301, 65.8%; on HLA-A1101, 78.3%; at HLA-A0201 (HLA-A0201 HMy2.CIR cells, competitor peptide 5μM, 24 hours, flow cytometry, read-out: 5μM Inhibition (%)), 7.2%. For the same compound, the inhibition at 15 µM on HLA-A1102 was 44.2%; on HLA-A0301, 78.1%; on HLA-A1101, 90.3%; at HLA-A0201 (HLA-A0201 HMy2.CIR cells, competitor peptide 15μM, 24 hours, flow cytometry, read-out: 15μM Inhibition (%)) it was 12%. The IC50 is more than 15 µM on HLA-A1102 (read-out: Affinity), less than 5 µM on HLA-A0301 (read-out: Affinity), less than 5 µM at HLA-A1101 and more than 15 µM at HLA-A0201. Moreover, in assay [1], the “number of HLA-A allotypes bound with high affinity” value is on record as “two”.
With `CSCC[C@H](NC(=O)[C@@H](N)CO)C(=O)N[C@@H](Cc1ccc(O)cc1)C(=O)N1CCC[C@H]1C(=O)N[C@@H](CO)C(=O)N[C@@H](CS)C(=O)N[C@@H](CS)C(=O)N[C@@H](CS)C(=O)N[C@H](C(=O)N[C@@H](CCCCN)C(=O)O)[C@@H](C)O` [Epitope P13] (H-SMYPSCCCTK-OH; N-terminus and C-terminus assumed), the inhibition at 5 µM at HLA-A1102 was determined as 54.7%; at HLA-A0301, 79.8%; at HLA-A0206 (competitor peptide 5μM, read-out: 5μM Inhibition (%)), 12.1%; at HLA-A1101, 79.5%. Moreover, the inhibition at 15 µM on HLA-A1102 stood at 73.1%; on HLA-A0301, 80.7%; at HLA-A0206 (competitor peptide 15μM, read-out: 15μM Inhibition (%)), 10.2%; on HLA-A1101, 83.9%. The “number of HLA-A allotypes bound with high affinity” value in assay [1] was “three”.
